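48-hour exposure; five concentrations; linearly interpolated endpoints. GI50: concentration for 50% inhibition of growth. TGI is the concentration that stops growth completely.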
Columns and labels:
Assay in all cases: NCI-60 cell line screen, 48 h
[1] = system: MOLT-4 leukemia
[2] = system: CAKI-1 renal
[3] = system: PC-3 prostate
[4] = system: IGROV1 ovarian
[5] = system: OVCAR-5 ovarian
[6] = system: SK-MEL-5 melanoma
[7] = system: HT29 colon
[8] = system: SF-295 CNS
[9] = system: NCI-H23 lung
[10] = system: K-562 leukemia
[11] = system: EKVX NSCLC
[12] = system: KM12 colon
[13] = system: T-47D breast
[14] = system: M14 melanoma
[15] = system: OVCAR-4 ovarian
[16] = system: MDA-MB-231 breast
[17] = system: SF-539 CNS
[18] = system: HCT-116 colon
[19] = system: NCI-H460 lung
[20] = system: SK-MEL-2 melanoma
[21] = system: U251 CNS
[22] = system: NCI-H522 lung
[23] = system: TK-10 renal
[24] = system: HCC-2998 colon
[25] = system: UO-31 renal
[26] = system: NCI-H226 lung
[27] = system: HOP-62 NSCLC
[28] = system: NCI/ADR-RES ovarian
[29] = system: 786-0 renal
[30] = system: RXF 393 renal
[31] = system: SNB-19 CNS
[32] = system: UACC-257 melanoma
[33] = system: SW-620 colon
[34] = system: SF-268 CNS
[35] = system: RPMI-8226 leukemia
[36] = system: SK-OV-3 ovarian
[37] = system: MALME-3M melanoma
[38] = system: LOX IMVI melanoma
[39] = system: ACHN renal
[40] = system: A549 NSCLC
[41] = system: DU-145 prostate
[42] = system: MDA-MB-435
[43] = system: HS 578T breast
[44] = system: MCF7 breast
[45] = system: UACC-62 melanoma
[46] = system: OVCAR-3 ovarian
[47] = system: COLO 205 colon
[48] = system: A498 renal
[49] = system: HL-60(TB) leukemia
[50] = system: SK-MEL-28 melanoma
[51] = system: SN12C renal
[52] = system: SNB-75 CNS
[53] = system: BT-549 breast
[54] = system: HOP-92 NSCLC
[55] = system: HCT-15 colon
[56] = system: OVCAR-8 ovarian
[57] = system: CCRF-CEM leukemia
[58] = system: SR leukemia

CN1CCN(Cc2ccc(NC(=O)c3cncc(C#Cc4cnc5ccc(NCCO)nn45)c3)cc2C(F)(F)F)CC1
GI50 [1]: 0.141 µM | TGI [1]: 3.86 µM | GI50 [2]: 0.764 µM | TGI [2]: 3.47 µM | GI50 [3]: 0.457 µM | TGI [3]: 3.92 µM | GI50 [4]: 0.239 µM | TGI [4]: 2.44 µM | GI50 [5]: 0.342 µM | TGI [5]: 4.33 µM | GI50 [6]: 0.797 µM | TGI [6]: 1.83 µM | GI50 [7]: 0.188 µM | TGI [7]: 1.43 µM | GI50 [8]: 0.717 µM | TGI [8]: 4.94 µM | GI50 [9]: 0.277 µM | TGI [9]: 1.31 µM | GI50 [10]: 0.005 µM | TGI [10]: 0.794 µM | GI50 [11]: 0.673 µM | TGI [11]: 4.01 µM | GI50 [12]: 0.005 µM | TGI [12]: 1.3 µM | GI50 [13]: 0.603 µM | TGI [13]: 4.22 µM | GI50 [14]: 0.231 µM | TGI [14]: 0.864 µM | GI50 [15]: 0.378 µM | TGI [15]: 2.1 µM | GI50 [16]: 0.0795 µM | TGI [16]: 0.335 µM | GI50 [17]: 0.0616 µM | TGI [17]: 0.596 µM | GI50 [18]: 0.0921 µM | TGI [18]: 0.675 µM | GI50 [19]: 0.209 µM | TGI [19]: 0.718 µM | GI50 [20]: 0.131 µM | TGI [20]: 0.435 µM | GI50 [21]: 0.609 µM | TGI [21]: 1.45 µM | GI50 [22]: 0.187 µM | TGI [22]: 0.94 µM | GI50 [23]: 1.2 µM | TGI [23]: 2.99 µM | GI50 [24]: 0.687 µM | TGI [24]: 3.2 µM | GI50 [25]: 2 µM | TGI [25]: 6.88 µM | GI50 [26]: 0.0758 µM | TGI [26]: 1.31 µM | GI50 [27]: 0.324 µM | TGI [27]: 1.42 µM | GI50 [28]: 30.1 µM | TGI [28]: 50 µM | GI50 [29]: 0.853 µM | TGI [29]: 2.03 µM | GI50 [30]: 0.59 µM | TGI [30]: 1.35 µM | GI50 [31]: 0.901 µM | TGI [31]: 3.99 µM | GI50 [32]: 0.608 µM | TGI [32]: 2.23 µM | GI50 [33]: 0.118 µM | TGI [33]: 0.58 µM | GI50 [34]: 0.207 µM | TGI [34]: 1.11 µM | GI50 [35]: 1.01 µM | TGI [35]: 2.97 µM | GI50 [36]: 0.805 µM | TGI [36]: 3.2 µM | GI50 [37]: 0.135 µM | TGI [37]: 0.635 µM | GI50 [38]: 0.179 µM | TGI [38]: 0.769 µM | GI50 [39]: 1.7 µM | TGI [39]: 5.86 µM | GI50 [40]: 0.718 µM | TGI [40]: 4.65 µM | GI50 [41]: 0.486 µM | TGI [41]: 3.47 µM | GI50 [42]: 0.123 µM | TGI [42]: 0.919 µM | GI50 [43]: 0.115 µM | TGI [43]: 0.863 µM | GI50 [44]: 0.0903 µM | TGI [44]: 0.787 µM | GI50 [45]: 0.532 µM | TGI [45]: 1.62 µM | GI50 [46]: 0.349 µM | TGI [46]: 2.06 µM | GI50 [47]: 0.111 µM | TGI [47]: 0.306 µM | GI50 [48]: 0.385 µM | TGI [48]: 0.946 µM | GI50 [49]: 0.138 µM | TGI [49]: 0.609 µM | GI50 [50]: 0.529 µM | TGI [50]: 1.74 µM | GI50 [51]: 0.172 µM | TGI [51]: 2.63 µM | GI50 [52]: 0.0874 µM | TGI [52]: 0.414 µM | GI50 [53]: 0.824 µM | TGI [53]: 1.62 µM | GI50 [54]: 0.019 µM | TGI [54]: 0.0874 µM | GI50 [55]: 1.65 µM | TGI [55]: 6.49 µM | GI50 [56]: 0.698 µM | TGI [56]: 4.05 µM | GI50 [57]: 0.031 µM | TGI [57]: 17.8 µM | GI50 [58]: 0.0584 µM | TGI [58]: 1.36 µM

CC1(C)CC[C@]23CC[C@]4(C)[C@H](CC[C@@H]5[C@@]6(C)CC[C@H](N)C(C)(C)[C@@H]6CC[C@]54C)[C@H]2[C@H]1OC3
GI50 [1]: 2.17 µM | TGI [1]: 7.3 µM | GI50 [2]: 1.69 µM | TGI [2]: 3.19 µM | GI50 [3]: 2.34 µM | TGI [3]: 6.14 µM | GI50 [5]: 1.87 µM | TGI [5]: 3.95 µM | GI50 [6]: 1.74 µM | TGI [6]: 3.2 µM | GI50 [8]: 1.75 µM | TGI [8]: 3.27 µM | GI50 [10]: 2.08 µM | TGI [10]: 5.94 µM | GI50 [11]: 1.83 µM | TGI [11]: 3.84 µM | GI50 [12]: 1.92 µM | TGI [12]: 3.65 µM | GI50 [13]: 3.75 µM | TGI [13]: 19.3 µM | GI50 [14]: 1.92 µM | TGI [14]: 3.88 µM | GI50 [15]: 2.75 µM | TGI [15]: 7.48 µM | GI50 [17]: 1.74 µM | TGI [17]: 3.22 µM | GI50 [18]: 1.74 µM | TGI [18]: 3.2 µM | GI50 [19]: 1.85 µM | TGI [19]: 3.6 µM | GI50 [20]: 2.98 µM | TGI [20]: 10.1 µM | GI50 [21]: 1.79 µM | TGI [21]: 3.66 µM | GI50 [22]: 2.98 µM | TGI [22]: 9.75 µM | GI50 [23]: 15.7 µM | TGI [23]: 31.1 µM | GI50 [24]: 1.76 µM | TGI [24]: 3.33 µM | GI50 [25]: 1.5 µM | TGI [25]: 2.97 µM | GI50 [26]: 5.22 µM | TGI [26]: 31.1 µM | GI50 [27]: 1.88 µM | TGI [27]: 3.78 µM | GI50 [29]: 1.66 µM | TGI [29]: 3.26 µM | GI50 [30]: 1.58 µM | TGI [30]: 2.94 µM | GI50 [31]: 1.9 µM | TGI [31]: 3.72 µM | GI50 [32]: 15.3 µM | TGI [32]: 35.6 µM | GI50 [33]: 2 µM | TGI [33]: 4.1 µM | GI50 [34]: 5.98 µM | TGI [34]: 23.5 µM | GI50 [35]: 2.73 µM | TGI [35]: 7.21 µM | GI50 [36]: 14.1 µM | TGI [36]: 28.7 µM | GI50 [39]: 1.82 µM | TGI [39]: 3.26 µM | GI50 [40]: 1.98 µM | TGI [40]: 4.36 µM | GI50 [41]: 1.89 µM | TGI [41]: 3.67 µM | GI50 [42]: 1.91 µM | TGI [42]: 3.73 µM | GI50 [43]: 2.58 µM | TGI [43]: 6.9 µM | GI50 [44]: 1.62 µM | TGI [44]: 3.32 µM | GI50 [45]: 1.85 µM | TGI [45]: 3.9 µM | GI50 [46]: 1.83 µM | TGI [46]: 3.48 µM | GI50 [47]: 1.91 µM | TGI [47]: 3.62 µM | GI50 [48]: 11.7 µM | TGI [48]: 27.1 µM | GI50 [49]: 1.67 µM | TGI [49]: 3.78 µM | GI50 [50]: 1.83 µM | TGI [50]: 3.93 µM | GI50 [51]: 1.79 µM | TGI [51]: 3.57 µM | GI50 [52]: 17 µM | TGI [52]: 38.9 µM | GI50 [53]: 15.4 µM | TGI [53]: 29 µM | GI50 [54]: 2.5 µM | TGI [54]: 6.59 µM | GI50 [55]: 1.62 µM | TGI [55]: 3.15 µM | GI50 [56]: 2.57 µM | TGI [56]: 6.84 µM | GI50 [57]: 2.11 µM | TGI [57]: 36.3 µM | GI50 [58]: 0.663 µM | TGI [58]: 4.56 µM

CNC(=O)c1c(NC(=O)c2ccc(F)cc2F)sc2c1CCC(=O)C2
GI50 [1]: 0.23 µM | TGI [1]: > 100 µM | GI50 [2]: 0.236 µM | TGI [2]: 1.04 µM | GI50 [8]: 1.31 µM | TGI [8]: 5.71 µM | GI50 [9]: 0.251 µM | TGI [9]: > 100 µM | GI50 [10]: 0.133 µM | TGI [10]: > 100 µM | GI50 [11]: 0.253 µM | TGI [11]: > 100 µM | GI50 [21]: 0.288 µM | TGI [21]: > 100 µM | GI50 [23]: 0.431 µM | TGI [23]: 17.7 µM | GI50 [27]: 1.13 µM | TGI [27]: > 100 µM | GI50 [28]: 0.265 µM | TGI [28]: > 100 µM | GI50 [29]: 0.39 µM | TGI [29]: 13.6 µM | GI50 [30]: 0.182 µM | TGI [30]: 1.73 µM | GI50 [31]: 0.44 µM | TGI [31]: > 52.4 µM | GI50 [34]: 0.428 µM | TGI [34]: > 100 µM | GI50 [35]: 0.227 µM | TGI [35]: > 100 µM | GI50 [36]: 2.59 µM | TGI [36]: 9.62 µM | GI50 [39]: 0.349 µM | TGI [39]: 1.08 µM | GI50 [43]: 0.439 µM | TGI [43]: 5.91 µM | GI50 [52]: 0.722 µM | TGI [52]: 3.3 µM | GI50 [53]: 0.345 µM | TGI [53]: 2.86 µM | GI50 [56]: 0.288 µM | TGI [56]: > 100 µM | GI50 [57]: 0.146 µM | TGI [57]: > 100 µM | GI50 [58]: 0.089 µM | TGI [58]: > 100 µM
